Assays:
m-calpain = biological target: T1, m-calpain (Rattus norvegicus, UniProt Q07009); test: Measurement of inhibitory activity against thiol protease (m-calpain purified from rat brain); type: biochemical; settings: m-calpain purified from a brain of rat
T1 construct: m-calpain was purified from a brain of rat; from tissue; host or cells: rat brain
T1 sequence (Q07009 20-700 limits assumed): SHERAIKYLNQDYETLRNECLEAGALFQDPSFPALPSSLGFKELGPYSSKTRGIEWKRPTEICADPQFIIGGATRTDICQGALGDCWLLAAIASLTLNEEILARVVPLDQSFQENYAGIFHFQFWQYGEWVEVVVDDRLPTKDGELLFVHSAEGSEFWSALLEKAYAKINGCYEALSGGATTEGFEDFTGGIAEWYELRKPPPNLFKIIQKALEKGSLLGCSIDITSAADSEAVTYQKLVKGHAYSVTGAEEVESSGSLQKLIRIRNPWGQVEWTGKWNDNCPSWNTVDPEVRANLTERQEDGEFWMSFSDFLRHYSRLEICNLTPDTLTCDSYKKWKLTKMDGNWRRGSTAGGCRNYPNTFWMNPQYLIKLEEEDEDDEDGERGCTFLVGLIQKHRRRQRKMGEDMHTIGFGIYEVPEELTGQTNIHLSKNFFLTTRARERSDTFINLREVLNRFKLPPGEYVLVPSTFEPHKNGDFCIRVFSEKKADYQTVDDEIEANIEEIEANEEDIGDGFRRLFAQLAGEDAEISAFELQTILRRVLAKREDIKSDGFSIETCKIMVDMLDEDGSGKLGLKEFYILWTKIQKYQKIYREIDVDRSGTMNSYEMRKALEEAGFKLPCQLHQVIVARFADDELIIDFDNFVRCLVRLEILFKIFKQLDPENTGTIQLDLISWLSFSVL
T1 sequence (Q64537 1-270 partner): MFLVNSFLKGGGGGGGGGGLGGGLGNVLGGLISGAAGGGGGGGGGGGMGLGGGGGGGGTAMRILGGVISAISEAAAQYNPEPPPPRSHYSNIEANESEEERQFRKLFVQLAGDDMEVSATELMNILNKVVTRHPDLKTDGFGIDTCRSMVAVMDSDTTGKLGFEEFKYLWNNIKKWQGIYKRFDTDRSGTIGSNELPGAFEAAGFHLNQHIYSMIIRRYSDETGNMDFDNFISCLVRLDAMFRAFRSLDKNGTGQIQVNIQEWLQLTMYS
Experimental: Measurement of Inhibitory Activity against Thiol Protease
Through the known method disclosed in Journal of Biological Chemistry, vol. 259, page 3210, 1984, m-calpain was purified from a brain of rat. The inhibitory activity against it was measured and determined according to the method disclosed in Journal of Biological Chemistry, vol. 259, page 12489, 1984.

[1] = system: microtubule-associated protein; settings: after the brain ischemia; cited from earlier work
[2] = system: brain trauma models of rat; settings: cited from earlier work

| Compound | IC50 (m-calpain) | also measured |
| --- | --- | --- |
| COc1ccc(/C=C/C(=O)N[C@@H](Cc2ccccc2)C(=O)CSCc2ccsc2)c(OC)c1 [60 (No. 219), (S)-3-(2,4-dimethoxycinnamoylamino)-4-phenyl-1-(3-thienylmethylthio)-2-butanone] | 14.5 µM | – |
| CCCC[C@H](NC(=O)COc1cccc(OC)c1)C(=O)CSCc1ccsc1 [18 (No. 87), (S)-3-(3-methoxyphenoxyacetylamino)-1-(3-thienylmethylthio)-2-heptanone] | 13 µM | – |
| CC(C)CCNC(=O)[C@H](CC(C)C)NC(=O)[C@H]1O[C@@H]1C(=O)O [E-64-C] | – | degradation of microtubule-associated protein [1]: inhibits the degradation of microtubule-associated protein after the brain ischemia |
| CCCC[C@H](NC(=O)COc1ccccc1)C(=O)CSCc1ccsc1 [17 (No. 86), (S)-3-phenoxyacetylamino-1-(3-thienylmethylthio)-2-heptanone] | 12.2 µM | – |
| O=C(COc1ccccc1)N[C@@H](Cc1ccccc1)C(=O)CSCc1ccco1 [38 (No. 171), (S)-1-furfurylthio-3-phenoxyacetylamino-4-phenyl-2-butanone] | 17 µM | – |
| COc1cccc(OCC(=O)N[C@@H](Cc2ccccc2)C(=O)CSCc2ccsc2)c1 [58 (No. 216), (S)-3-(3-methoxyphenoxyacetylamino)-4-phenyl-1-(3-thienylmethylthio)-2-butanone] | 4.5 µM | – |
| CC(=O)N[C@@H](CC(C)C)C(=O)N[C@@H](CC(C)C)C(=O)N[C@H](C=O)CCCNC(=N)N [leupeptin] | – | protection of axon [2]: can protect axon |
